From paper PMC5923269, “The Ustilago maydis repetitive effector Rsp3 blocks the antifungal activity of mannose-binding maize proteins” (Nature Communications, 2018) come the findings set out here.

This test addresses T1, AFP1 (Anti-Fungal Protein 1; AFP1-His) (Zea mays, UniProt B4FUR2).
T1 construct: full-length with own signal peptide, secreted; C-terminal His tag; transient expression in Nicotiana benthamiana, NTA-purified from apoplastic fluid; two DUF26 domains
T1 sequence (B4FUR2 26-268): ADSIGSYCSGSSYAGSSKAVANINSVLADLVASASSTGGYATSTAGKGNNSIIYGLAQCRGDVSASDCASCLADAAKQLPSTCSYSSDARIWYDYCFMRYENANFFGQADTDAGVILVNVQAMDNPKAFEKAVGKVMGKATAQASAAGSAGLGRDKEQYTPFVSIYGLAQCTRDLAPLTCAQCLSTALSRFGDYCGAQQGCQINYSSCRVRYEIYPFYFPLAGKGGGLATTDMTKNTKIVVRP
Put plainly: pull-down on mannose-agarose beads, anti-His western blot. It counts as binding. The note with it: mannose immobilised on agarose; 10 mM Tris-HCl pH 7.5, 20 mM CaCl2, 1 M NaCl, 0.05% Tween-20, 4 °C, 1 h. On the technique in general: A western blot detects proteins with antibodies after separation by electrophoresis.

As to `OC[C@H]1OC(O)[C@@H](O)[C@@H](O)[C@@H]1O` (stereo partly shown) [mannose], the “pull-down on mannose-agarose beads, anti-His western blot” value is “strong binding was observed for wild type AFP1-His”.
